Data on one molecule can be found in PMC3680066 (BMC Microbiology, 2013).

The assay has as its target leucine aminopeptidase (LAP), pepA (Burkholderia pseudomallei, UniProt Q63WC3). Put plainly: biochemical. As to conditions: read-out: Relative activity (%).

Chain of leucine aminopeptidase (LAP), pepA (Q63WC3 whole entry, looked up): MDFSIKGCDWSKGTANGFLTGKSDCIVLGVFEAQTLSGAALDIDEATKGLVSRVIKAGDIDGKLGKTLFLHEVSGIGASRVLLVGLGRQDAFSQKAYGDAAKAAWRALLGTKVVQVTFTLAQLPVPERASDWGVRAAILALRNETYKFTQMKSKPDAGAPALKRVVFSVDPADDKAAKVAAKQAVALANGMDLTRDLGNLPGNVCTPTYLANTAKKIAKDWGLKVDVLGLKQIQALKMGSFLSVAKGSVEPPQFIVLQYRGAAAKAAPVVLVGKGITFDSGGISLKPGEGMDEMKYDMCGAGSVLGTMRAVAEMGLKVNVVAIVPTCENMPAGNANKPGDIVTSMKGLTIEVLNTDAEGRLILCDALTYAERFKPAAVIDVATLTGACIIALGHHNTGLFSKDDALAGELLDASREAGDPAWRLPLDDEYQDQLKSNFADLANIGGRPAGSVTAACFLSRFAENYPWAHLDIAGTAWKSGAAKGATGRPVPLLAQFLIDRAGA

For the molecule `CC(C)C[C@@H](N)[C@H](O)C(=O)N[C@H](C(=O)N[C@H](C(=O)N[C@@H](CC(=O)O)C(=O)O)C(C)C)C(C)C` [amastatin], the activity at 2000 µM came to 0%.
